From US20230406885A1, “CYCLIC PEPTIDES FOR TRAPPING INTERLEUKIN-1 BETA” (MERCK SHARP & DOHME LLC, priority 2022, published 2023) come the findings set out here.

Structures are written as SMILES. Where a SMILES comes first, the peptide text is derived from it. [ ]: non-standard residue; d: D form. Trp(4-Cl)(βS-Me) = C[C@@H](c1c[nH]c2cccc(Cl)c12)[C@H](N)C(=O)O; Trp(βS-Me,4-F) = C[C@@H](c1c[nH]c2cccc(F)c12)[C@H](N)C(=O)O; Bip(4'-COOH) = N[C@@H](Cc1ccc(-c2ccc(C(=O)O)cc2)cc1)C(=O)O; Phe(4-COOH) = N[C@@H](Cc1ccc(C(=O)O)cc1)C(=O)O; Pro(4R-NH2) = N[C@H]1CN[C@H](C(=O)O)C1; hTyr = N[C@@H](CCc1ccc(O)cc1)C(=O)O; h4Pal = N[C@@H](CCc1ccncc1)C(=O)O; 4Pal = N[C@@H](Cc1ccncc1)C(=O)O; hLys = NCCCCC[C@H](N)C(=O)O; dDab = NCC[C@@H](N)C(=O)O; dNMeA = CN[C@H](C)C(=O)O; Dap = NC[C@H](N)C(=O)O

For the experiment, the target named is T1, Recombinant human IL-1β (Homo sapiens, UniProt P01584).
T1 construct: purchased BioLegend 579404
T1 sequence (P01584 117-269): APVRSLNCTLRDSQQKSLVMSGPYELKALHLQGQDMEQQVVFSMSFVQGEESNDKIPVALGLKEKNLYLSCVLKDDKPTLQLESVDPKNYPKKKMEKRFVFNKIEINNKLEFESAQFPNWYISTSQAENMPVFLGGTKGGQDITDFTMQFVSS
Briefly: IL-6 assay in MRC5 cells: inhibition of IL-1β induced IL-6 secretion (AlphaLISA). Type of experiment: cell-based. The settings on record: inhibition of IL-1β induced IL-6 secretion in MRC5 cells; IL-1β pre-incubated 1 hour with compound; read-out: MRC5 IC50. In a few lines:
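IL-1β at 2×EC80 in seeding medium (EMEM, 0.025% BSA) preincubated 1 h at ambient temperature with compound, then 3000 MRC5 cells/well added and incubated overnight at 37 °C, 5% CO2. IL-6 in conditioned medium quantified by AlphaLISA; IC50 from 4-parameter logistic fit.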

In the case of `C[C@@H]1C(=O)NCC(=O)N[C@@H](Cc2ccc(-c3ccc(C(=O)O)cc3)cc2)C(=O)N[C@@H](Cc2c[nH]c3ccccc23)C(=O)N[C@@H](CN)C(=O)N[C@H](C)C(=O)N[C@@H](CCc2ccc(O)cc2)C(=O)N[C@@H](Cc2ccc(-c3ccc(C(=O)O)cc3)cc2)C(=O)N[C@@H](Cc2c[nH]c3ccccc23)C(=O)N[C@@H](Cc2ccc(C(=O)O)cc2)C(=O)NCC(=O)N2C[C@H](N)C[C@H]2C(=O)N[C@@H]([C@@H](C)c2c[nH]c3cccc(Cl)c23)C(=O)N[C@@H](CC(=O)O)C(=O)N1C` [Example 53] (cyclo([Bip(4'-COOH)]W[Phe(4-COOH)]G[Pro(4R-NH2)][Trp(4-Cl)(βS-Me)]D[dNMeA]G[Bip(4'-COOH)]W[Dap][dA][hTyr])), the IC50 was 0.0418 nM. On to `C[C@@H]1C(=O)NCC(=O)N[C@@H](Cc2ccc(-c3ccc(C(=O)O)cc3)cc2)C(=O)N[C@@H](Cc2c[nH]c3ccccc23)C(=O)NCC(=O)N[C@H](CCN)C(=O)N[C@@H](CCc2ccc(O)cc2)C(=O)N[C@@H](Cc2ccc(-c3ccc(C(=O)O)cc3)cc2)C(=O)N[C@@H](Cc2c[nH]c3ccccc23)C(=O)N[C@@H](Cc2ccc(C(=O)O)cc2)C(=O)NCC(=O)N2C[C@H](N)C[C@H]2C(=O)N[C@@H]([C@@H](C)c2c[nH]c3cccc(Cl)c23)C(=O)N[C@@H](CC(=O)O)C(=O)N1C` [Example 54] (cyclo([Bip(4'-COOH)]W[Phe(4-COOH)]G[Pro(4R-NH2)][Trp(4-Cl)(βS-Me)]D[dNMeA]G[Bip(4'-COOH)]WG[dDab][hTyr])), for which the IC50 was 0.0692 nM.

Consider `C[C@@H]1C(=O)NCC(=O)N[C@@H](Cc2ccc(-c3ccc(C(=O)O)cc3)cc2)C(=O)N[C@@H](Cc2c[nH]c3ccccc23)C(=O)NCC(=O)N[C@H](CCN)C(=O)N[C@@H](CCc2ccc(O)cc2)C(=O)N[C@@H](Cc2ccc(-c3ccc(C(=O)O)cc3)cc2)C(=O)N[C@@H](Cc2c[nH]c3ccccc23)C(=O)N[C@@H](Cc2ccc(C(=O)O)cc2)C(=O)NCC(=O)N2C[C@H](N)C[C@H]2C(=O)N[C@@H]([C@@H](C)c2c[nH]c3cccc(Cl)c23)C(=O)N[C@@H](CCC(=O)O)C(=O)N1C` [Example 55] (cyclo([Bip(4'-COOH)]W[Phe(4-COOH)]G[Pro(4R-NH2)][Trp(4-Cl)(βS-Me)]E[dNMeA]G[Bip(4'-COOH)]WG[dDab][hTyr])), for which the IC50 came out at 0.0493 nM. To `C[C@@H]1C(=O)NCC(=O)N[C@@H](Cc2ccc(-c3ccc(C(=O)O)cc3)cc2)C(=O)N[C@@H](Cc2c[nH]c3ccccc23)C(=O)NCC(=O)N[C@H](CCN)C(=O)N[C@@H](CCc2ccc(O)cc2)C(=O)N[C@@H](Cc2ccc(-c3ccc(C(=O)O)cc3)cc2)C(=O)N[C@@H](Cc2c[nH]c3ccccc23)C(=O)N[C@@H](Cc2ccc(C(=O)O)cc2)C(=O)NCC(=O)N2C[C@H](N)C[C@H]2C(=O)N[C@@H]([C@@H](C)c2c[nH]c3cccc(Cl)c23)C(=O)N[C@@H](CC(N)=O)C(=O)N1C` [Example 56] (cyclo([Bip(4'-COOH)]W[Phe(4-COOH)]G[Pro(4R-NH2)][Trp(4-Cl)(βS-Me)]N[dNMeA]G[Bip(4'-COOH)]WG[dDab][hTyr])) belongs 0.0207 nM; to `C[C@@H]1C(=O)NCC(=O)N[C@@H](Cc2ccc(-c3ccc(C(=O)O)cc3)cc2)C(=O)N[C@@H](Cc2c[nH]c3ccccc23)C(=O)NCC(=O)N[C@H](CCN)C(=O)N[C@@H](CCc2ccc(O)cc2)C(=O)N[C@@H](Cc2ccc(-c3ccc(C(=O)O)cc3)cc2)C(=O)N[C@@H](Cc2c[nH]c3ccccc23)C(=O)N[C@@H](Cc2ccc(C(=O)O)cc2)C(=O)NCC(=O)N2C[C@H](N)C[C@H]2C(=O)N[C@@H]([C@@H](C)c2c[nH]c3cccc(Cl)c23)C(=O)N[C@@H](CCC(N)=O)C(=O)N1C` [Example 57] (cyclo([Bip(4'-COOH)]W[Phe(4-COOH)]G[Pro(4R-NH2)][Trp(4-Cl)(βS-Me)]Q[dNMeA]G[Bip(4'-COOH)]WG[dDab][hTyr])), 0.0873 nM; to `CC(C)C[C@@H]1NC(=O)[C@H](CCCCN)NC(=O)[C@H](Cc2ccc(-c3ccc(C(=O)O)cc3)cc2)NC(=O)CNC(=O)[C@@H](C)N(C)C(=O)[C@H](C)NC(=O)[C@H]([C@@H](C)c2c[nH]c3cccc(F)c23)NC(=O)[C@@H]2C[C@@H](N)CN2C(=O)CNC(=O)[C@H](Cc2ccc(C(=O)O)cc2)NC(=O)[C@H](Cc2c[nH]c3ccccc23)NC(=O)[C@H](Cc2ccc(-c3ccc(C(=O)O)cc3)cc2)NC(=O)[C@H](CCc2ccc(O)cc2)NC(=O)[C@@H](C)NC1=O` [Example 58] (cyclo([Bip(4'-COOH)]W[Phe(4-COOH)]G[Pro(4R-NH2)][Trp(βS-Me,4-F)]A[dNMeA]G[Bip(4'-COOH)]KL[dA][hTyr])), 0.247 nM. `CC(C)C[C@@H]1NC(=O)[C@H](Cc2ccncc2)NC(=O)[C@H](Cc2ccc(-c3ccc(C(=O)O)cc3)cc2)NC(=O)CNC(=O)[C@@H](C)N(C)C(=O)[C@H](CC(=O)O)NC(=O)[C@H]([C@@H](C)c2c[nH]c3cccc(F)c23)NC(=O)[C@@H]2C[C@@H](N)CN2C(=O)CNC(=O)[C@H](Cc2ccc(C(=O)O)cc2)NC(=O)[C@H](Cc2c[nH]c3ccccc23)NC(=O)[C@H](Cc2ccc(-c3ccc(C(=O)O)cc3)cc2)NC(=O)[C@H](CCc2ccc(O)cc2)NC(=O)[C@@H](C)NC1=O` [Example 59] (cyclo([Bip(4'-COOH)]W[Phe(4-COOH)]G[Pro(4R-NH2)][Trp(βS-Me,4-F)]D[dNMeA]G[Bip(4'-COOH)][4Pal]L[dA][hTyr])): the IC50 turned out to be 0.0362 nM. To `CC(C)C[C@@H]1NC(=O)[C@H](Cc2ccccc2)NC(=O)[C@H](Cc2ccc(-c3ccc(C(=O)O)cc3)cc2)NC(=O)CNC(=O)[C@@H](C)N(C)C(=O)[C@H](CC(=O)O)NC(=O)[C@H]([C@@H](C)c2c[nH]c3cccc(F)c23)NC(=O)[C@@H]2C[C@@H](N)CN2C(=O)CNC(=O)[C@H](Cc2ccc(C(=O)O)cc2)NC(=O)[C@H](Cc2c[nH]c3ccccc23)NC(=O)[C@H](Cc2ccc(-c3ccc(C(=O)O)cc3)cc2)NC(=O)[C@H](CCc2ccc(O)cc2)NC(=O)[C@@H](C)NC1=O` [Example 60] (cyclo([Bip(4'-COOH)]W[Phe(4-COOH)]G[Pro(4R-NH2)][Trp(βS-Me,4-F)]D[dNMeA]G[Bip(4'-COOH)]FL[dA][hTyr])) belongs 0.0689 nM. To `CC(C)C[C@@H]1NC(=O)[C@H](CCc2ccncc2)NC(=O)[C@H](Cc2ccc(-c3ccc(C(=O)O)cc3)cc2)NC(=O)CNC(=O)[C@@H](C)N(C)C(=O)[C@H](CC(=O)O)NC(=O)[C@H]([C@@H](C)c2c[nH]c3cccc(F)c23)NC(=O)[C@@H]2C[C@@H](N)CN2C(=O)CNC(=O)[C@H](Cc2ccc(C(=O)O)cc2)NC(=O)[C@H](Cc2c[nH]c3ccccc23)NC(=O)[C@H](Cc2ccc(-c3ccc(C(=O)O)cc3)cc2)NC(=O)[C@H](CCc2ccc(O)cc2)NC(=O)[C@@H](C)NC1=O` [Example 61] (cyclo([Bip(4'-COOH)]W[Phe(4-COOH)]G[Pro(4R-NH2)][Trp(βS-Me,4-F)]D[dNMeA]G[Bip(4'-COOH)][h4Pal]L[dA][hTyr])) belongs 0.312 nM.

Regarding `CC(C)C[C@@H]1NC(=O)[C@H](CCCCCN)NC(=O)[C@H](Cc2ccc(-c3ccc(C(=O)O)cc3)cc2)NC(=O)CNC(=O)[C@@H](C)N(C)C(=O)[C@H](CC(=O)O)NC(=O)[C@H]([C@@H](C)c2c[nH]c3cccc(F)c23)NC(=O)[C@@H]2C[C@@H](N)CN2C(=O)CNC(=O)[C@H](Cc2ccc(C(=O)O)cc2)NC(=O)[C@H](Cc2c[nH]c3ccccc23)NC(=O)[C@H](Cc2ccc(-c3ccc(C(=O)O)cc3)cc2)NC(=O)[C@H](CCc2ccc(O)cc2)NC(=O)[C@@H](C)NC1=O` [Example 62] (cyclo([Bip(4'-COOH)]W[Phe(4-COOH)]G[Pro(4R-NH2)][Trp(βS-Me,4-F)]D[dNMeA]G[Bip(4'-COOH)][hLys]L[dA][hTyr])), the IC50 is 0.283 nM.
